Results: EP1228058B1, “BENZOPYRANYL GUANIDINE DERIVATIVES, PROCESS FOR PREPARATION THEREOF, AND PHARMACEUTICAL COMPOSITIONS CONTAINING THEM” (Dongbu Hannong Chemical Co., Ltd., priority 1999, dated 2001)

What was measured:
RAW 264.7 cells = test: Inhibition of LPS-induced NO production (Griess reagent); assay type: cell-based, murine; details: Mus musculus, RAW264.7, 100 uM, 24 hours
Protocol: Using RPMI1640 media supplemented with 10% fetal bovine serum (FBS), RAW 264.7 cells (obtained from American Type Culture Collection), a murine macrophage cell line, were cultured at 37 °C in a 5% CO2 incubator. The RAW264.7 cells were harvested and cell density was adjusted to 5x10^5/ml with a RPMI medium supplemented with 0.5% FBS and plated at 5x10^4 cells/well to 96-well plates, which were then cultured for 20 hr in a CO2 incubator. After removal of the media, the cells were pre-treated for 1 hour with fresh media containing 33 uM and 100 uM of test compounds. The test compounds were dissolved in DMSO and diluted to respective concentration in the media. In order to minimize DMSO effect on the nitric oxide formation by the RAW264.7 cells in the wells, the media were allowed to contain DMSO at a concentration of 0.1 % or less.
After completion of one hour pre-treatment, lipopolysaccharide (LPS, E. coli serotype 055:B5) was added to activate the cells, which were, then, maintained for 24 hours in a CO2 incubator. As a result of the activation of RAW264.7 cells with LPS, NO was formed. The NO released into the media was in a form of nitrite NO2^- and quantitatively measured using the Griess reagent. A control was treated only with vehicle instead of test compounds.
The inhibitory effects of the test compounds against NO production were determined as the reduction of NO quantity compared with that of the control group.

[1] = Acute oral toxicity test in rats; details: rat, in vivo, single oral dose in 0.5% methyl cellulose, read-out: lethal dose (LD50) for oral administration
How it was run: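 Six-week-old SPF SD rats, two per group, received a single oral dose of 1 g/kg suspended in 0.5% methyl cellulose (10 ml/kg). Survivors at the end of observation underwent haematology, serum chemistry, necropsy and histopathology of vital organs with macroscopic lesions.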

rat brain homogenate = test: Inhibition of iron-induced lipid peroxidation (MDA quantification); assay type: biochemical; details: 100 uM; FeCl2 400 uM, 37 °C, 30 min
Protocol: The rat brain was homogenized in a Krebs buffer (15 mM HEPES, 10 mM glucose, 140 mM NaCl, 3.6 mM KCl, 1.5 mM CaCl2, 1.4 mM KH2PO4, 0.7 mM MgCl2, pH 7.4) and the supernatant separated by centrifugation at 12,000 rpm for 10 min. was used for further experiments. FeCl2 was added to a final concentration of 400 uM in the brain homogenate which was then allowed to stand at 37 °C for 30 min. for the facilitation of oxidation. Each of the test compounds was added at a concentration of 100 uM and vehicle was used as a control.
Iron facilitates the oxidation of the brain homogenate to produce malondialdehyde (MDA), a lipid peroxidation product. Thus, the lipid peroxidation was determined by MDA quantification. The inhibitory effect of the test compounds against the lipid peroxidation was evaluated by calculating MDA reduction rate of the test compounds compared with that of the control group.
Typically, the MDA quantification is achieved by reacting samples with 2-thiobarbituric acid (TBA) and measuring the absorbance at 530 nm. However, this method is unsuitable to treat samples on a large scale because of a boiling step. Thus, in this experiment, N-methyl-2-phenylindole was used instead of TBA. […] Bioxytech^R LPO-586 Kit was used for MDA quantification.

[2] = tested on: Rat aortic smooth muscle cells; test: Inhibition of proliferation of vascular smooth muscle cells ([3H]-thymidine incorporation into DNA); assay type: cell-based; details: [^3H]-thymidine into DNA; angiotensin II (10^-7M) stimulated = 100; 72 hr; 4320 min
Protocol: Inhibitory effects on cell proliferation was evaluated by measurement of incorporation of [^3H]-thymidine into DNA. Rat aortic smooth muscle cells were grown in 24 well plate for 3 days to near confluence in DMEM containing 10% FBS, then DMEM containing FBS was washed out. Cells were cultured again in DMEM without serum for 48 hr to be quiescent. […] During the last 4 hours of incubation, [^3H]-thymidine (1 uCi/ml) was added. […] The samples were filtered through glass microfiber filter (GF/B. Whatmann) under vacuum. After washing the filters 3 times with 2 ml of an aqueous solution of 5% TCA, the radioactivity incorporated into DNA was counted by Liquid Scintillation Counter (Packard, TRI-CARB, 2100TR), then calculated incorporation % of [^3H]-thymidine.

Which inhibition at 100 µM (RAW 264.7 cells) does the source give for COC(OC)[C@]1(C)Oc2ccc([N+](=O)[O-])cc2[C@@H](NC(=NC#N)Nc2cccc(C(F)(F)F)c2)[C@@H]1O [Example 7, (2R, 3S, 4R)-N''-cyano-N-(6-nitro-3,4-dihydro-3-hydroxy-2-methyl-2-dimethoxymethyl-2H-benzopyran-4-yl)-N'-(3-trifluoromethylphenyl)guanidine] here?
The inhibition at 100 µM was 88%.

What about the LD50 [1] of the same compound?
Its LD50 is > 1000 mg/kg.

And the “% Inhibition” value (rat brain homogenate)?
The value was 70%.

What about the Incorporation % [2] of the same compound?
Its Incorporation % is 37.8%.
